# Laboratory results: patent publication US20250263459A1, “STABILIZED PACAP PEPTIDE” (SENJU PHARMACEUTICAL CO., LTD., priority 2019, published 2025)
# Non-standard residues stand in square brackets, D forms with d. Residues, ends and D or L forms follow the SMILES beside them. Ala(1H-tetrazol-5-yl) = N[C@@H](Cc1nnn[nH]1)C(=O)O
# Test: Stability test 1, sample preparation 5: survival rate of peptide in Tris buffer (pH 7.0) after storage, HPLC
# Type: physicochemical
# Conditions: 100 μM peptide; for survival rate after correction for water, 40° C. 4 week / survival rate after correction for water, 40° C. 8 week: Tris buffer pH 7.0, 40° C.; for survival rate after correction for water, 40° C. 4 week: 4 weeks (Table 13); for survival rate after correction for water, 40° C. 8 week: 8 weeks (Table 13); for survival rate after correction for water, 60° C. 1 week / survival rate after correction for water, 60° C. 2 week: Tris buffer pH 7.0, 60° C.; for survival rate after correction for water, 60° C. 1 week: 1 week (Table 13); for survival rate after correction for water, 60° C. 2 week: 2 weeks (Table 13)
# Description: The peak area value for the peptide in the chromatogram was calculated, and the survival rate (survival rate before correction for water) was calculated using formula (2). The survival rate after correction for water was also calculated from the survival rate before correction for water using formula (3) to take into account the permeability of the container.
# The prepared peptide solutions were incubated for 4 weeks or 8 weeks in a 40° C. thermostatic bath, and for one week or 2 weeks in a thermostatic bath at 60° C., to obtain stored samples.
# The following gradient time was used only for peptide 30.
SMILES,"survival rate after correction for water, 40° C. 4 week","survival rate after correction for water, 40° C. 8 week","survival rate after correction for water, 60° C. 1 week","survival rate after correction for water, 60° C. 2 week"
"CC(=O)N[C@@H](Cc1c[nH]cn1)C(=O)N[C@@H](CO)C(=O)N[C@@H](Cc1nnn[nH]1)C(=O)NCC(=O)N[C@@H](C)C(=O)N[C@@H](Cc1ccccc1)C(=O)N[C@H](C(=O)N[C@@H](Cc1nnn[nH]1)C(=O)N[C@@H](CO)C(=O)N[C@@H](Cc1ccc(O)cc1)C(=O)N[C@@H](CO)C(=O)N[C@@H](CCCNC(=N)N)C(=O)N[C@@H](Cc1ccc(O)cc1)C(=O)N[C@@H](CCCNC(=N)N)C(=O)N[C@@H](CCCCN)C(=O)N[C@@H](CCC(N)=O)C(=O)N[C@@H](CC(C)C)C(=O)N[C@@H](C)C(=O)N[C@H](C(=O)N[C@@H](CCCCN)C(=O)N[C@@H](CCCCN)C(=O)N[C@@H](Cc1ccc(O)cc1)C(=O)N[C@@H](CC(C)C)C(=O)N[C@@H](C)C(=O)N[C@@H](C)C(=O)N[C@H](C(=O)N[C@@H](CC(C)C)C(N)=O)C(C)C)C(C)C)[C@@H](C)O [Peptide 23, HSTzGA FTTzSY SRYRK QLAVK KYLAA VL] (Ac-HS[Ala(1H-tetrazol-5-yl)]GAFT[Ala(1H-tetrazol-5-yl)]SYSRYRKQLAVKKYLAAVL-NH2)",87.7%,89.1%,96.4%,91.3%
"CC[C@H](C)[C@H](NC(=O)CNC(=O)[C@H](Cc1nnn[nH]1)NC(=O)[C@H](CO)NC(=O)[C@H](Cc1c[nH]cn1)NC(C)=O)C(=O)N[C@@H](Cc1ccccc1)C(=O)N[C@@H](C)C(=O)N[C@@H](Cc1nnn[nH]1)C(=O)N[C@@H](CO)C(=O)N[C@@H](Cc1ccc(O)cc1)C(=O)N[C@@H](CO)C(=O)N[C@@H](CCCNC(=N)N)C(=O)N[C@@H](Cc1ccc(O)cc1)C(=O)N[C@@H](CCCNC(=N)N)C(=O)N[C@@H](CCCCN)C(=O)N[C@@H](CCC(N)=O)C(=O)N[C@@H](CC(C)C)C(=O)N[C@@H](C)C(=O)N[C@H](C(=O)N[C@@H](CCCCN)C(=O)N[C@@H](CCCCN)C(=O)N[C@@H](Cc1ccc(O)cc1)C(=O)N[C@@H](CC(C)C)C(=O)N[C@@H](C)C(=O)N[C@@H](C)C(=O)N[C@H](C(=O)N[C@@H](CC(C)C)C(N)=O)C(C)C)C(C)C [Peptide 24, HSTzGI FATzSY SRYRK QLAVK KYLAA VL] (Ac-HS[Ala(1H-tetrazol-5-yl)]GIFA[Ala(1H-tetrazol-5-yl)]SYSRYRKQLAVKKYLAAVL-NH2)",90.5%,83.5%,99.5%,91.1%
"CC[C@H](C)[C@H](NC(=O)CNC(=O)[C@H](Cc1nnn[nH]1)NC(=O)[C@H](C)NC(=O)[C@H](Cc1c[nH]cn1)NC(C)=O)C(=O)N[C@@H](Cc1ccccc1)C(=O)N[C@@H](C)C(=O)N[C@@H](Cc1nnn[nH]1)C(=O)N[C@@H](CO)C(=O)N[C@@H](Cc1ccc(O)cc1)C(=O)N[C@@H](CO)C(=O)N[C@@H](CCCNC(=N)N)C(=O)N[C@@H](Cc1ccc(O)cc1)C(=O)N[C@@H](CCCNC(=N)N)C(=O)N[C@@H](CCCCN)C(=O)N[C@@H](CCC(N)=O)C(=O)N[C@@H](CC(C)C)C(=O)N[C@@H](C)C(=O)N[C@H](C(=O)N[C@@H](CCCCN)C(=O)N[C@@H](CCCCN)C(=O)N[C@@H](Cc1ccc(O)cc1)C(=O)N[C@@H](CC(C)C)C(=O)N[C@@H](C)C(=O)N[C@@H](C)C(=O)N[C@H](C(=O)N[C@@H](CC(C)C)C(N)=O)C(C)C)C(C)C [Peptide 25, HATzGI FATzSY SRYRK QLAVK KYLAA VL] (Ac-HA[Ala(1H-tetrazol-5-yl)]GIFA[Ala(1H-tetrazol-5-yl)]SYSRYRKQLAVKKYLAAVL-NH2)",91.3%,85.1%,97.3%,93.1%
"CC[C@H](C)[C@H](NC(=O)CNC(=O)[C@H](Cc1nnn[nH]1)NC(=O)[C@H](C)NC(=O)[C@H](Cc1c[nH]cn1)NC(C)=O)C(=O)N[C@@H](Cc1ccccc1)C(=O)N[C@H](C(=O)N[C@@H](Cc1nnn[nH]1)C(=O)N[C@@H](CO)C(=O)N[C@@H](Cc1ccc(O)cc1)C(=O)N[C@@H](CO)C(=O)N[C@@H](CCCNC(=N)N)C(=O)N[C@@H](Cc1ccc(O)cc1)C(=O)N[C@@H](CCCNC(=N)N)C(=O)N[C@@H](CCCCN)C(=O)N[C@@H](C)C(=O)N[C@@H](CC(C)C)C(=O)N[C@@H](C)C(=O)N[C@H](C(=O)N[C@@H](CCCCN)C(=O)N[C@@H](CCCCN)C(=O)N[C@@H](Cc1ccc(O)cc1)C(=O)N[C@@H](CC(C)C)C(=O)N[C@@H](C)C(=O)N[C@@H](C)C(=O)N[C@H](C(=O)N[C@@H](CC(C)C)C(N)=O)C(C)C)C(C)C)[C@@H](C)O [Peptide 26, HATzGI FITzSY SRYRK ALAVK KYLAA VL] (Ac-HA[Ala(1H-tetrazol-5-yl)]GIFT[Ala(1H-tetrazol-5-yl)]SYSRYRKALAVKKYLAAVL-NH2)",93.2%,89.7%,97.9%,94.4%
"CC[C@H](C)[C@H](NC(=O)CNC(=O)[C@H](Cc1nnn[nH]1)NC(=O)[C@H](CO)NC(=O)[C@H](Cc1c[nH]cn1)NC(C)=O)C(=O)N[C@@H](Cc1ccccc1)C(=O)N[C@@H](C)C(=O)N[C@@H](Cc1nnn[nH]1)C(=O)N[C@@H](CO)C(=O)N[C@@H](Cc1ccc(O)cc1)C(=O)N[C@@H](CO)C(=O)N[C@@H](CCCNC(=N)N)C(=O)N[C@@H](Cc1ccc(O)cc1)C(=O)N[C@@H](CCCNC(=N)N)C(=O)N[C@@H](CCCCN)C(=O)N[C@@H](C)C(=O)N[C@@H](CC(C)C)C(=O)N[C@@H](C)C(=O)N[C@H](C(=O)N[C@@H](CCCCN)C(=O)N[C@@H](CCCCN)C(=O)N[C@@H](Cc1ccc(O)cc1)C(=O)N[C@@H](CC(C)C)C(=O)N[C@@H](C)C(=O)N[C@@H](C)C(=O)N[C@H](C(=O)N[C@@H](CC(C)C)C(N)=O)C(C)C)C(C)C [Peptide 28, HSTzGI FATzSY SRYRK ALAVK KYLAA VL] (Ac-HS[Ala(1H-tetrazol-5-yl)]GIFA[Ala(1H-tetrazol-5-yl)]SYSRYRKALAVKKYLAAVL-NH2)",94.1%,89.8%,98.6%,90.9%
"CC[C@H](C)[C@H](NC(=O)CNC(=O)[C@H](Cc1nnn[nH]1)NC(=O)[C@H](CO)NC(=O)[C@H](Cc1c[nH]cn1)NC(C)=O)C(=O)N[C@@H](Cc1ccccc1)C(=O)N[C@@H](C)C(=O)N[C@@H](Cc1nnn[nH]1)C(=O)N[C@@H](CO)C(=O)N[C@@H](Cc1ccc(O)cc1)C(=O)N[C@@H](CO)C(=O)N[C@@H](CCCNC(=N)N)C(=O)N[C@@H](Cc1ccc(O)cc1)C(=O)N[C@@H](CCCNC(=N)N)C(=O)N[C@@H](CCCCN)C(=O)N[C@@H](CCC(N)=O)C(=O)N[C@@H](C)C(=O)N[C@@H](C)C(=O)N[C@H](C(=O)N[C@@H](CCCCN)C(=O)N[C@@H](CCCCN)C(=O)N[C@@H](Cc1ccc(O)cc1)C(=O)N[C@@H](CC(C)C)C(=O)N[C@@H](C)C(=O)N[C@@H](C)C(=O)N[C@H](C(=O)N[C@@H](CC(C)C)C(N)=O)C(C)C)C(C)C [Peptide 29, HSTzGI FATzSY SRYRK QAAVK KYLAA VL] (Ac-HS[Ala(1H-tetrazol-5-yl)]GIFA[Ala(1H-tetrazol-5-yl)]SYSRYRKQAAVKKYLAAVL-NH2)",86.1%,77.4%,96.3%,91.9%
